Test results published in patent US20130040952A1 (priority 2011, published 2013).
Where a SMILES comes first, the peptide text is derived from it. Bridges are numbered along the chain shown (N, C = ends).

Experiments:
WSN virus = experiment: microbe, parasite or virus in culture; details: unidentified influenza virus, MDCK, 48 h, read-out: IC50 (μM), antiinfluenza
NP WT trimer = NP WT trimer (Influenza A virus, UniProt P15682); format: binding, influenza A virus (WSN)
[1] = Cytotoxicity assay in MDCK cells (MTS); format: cell-based; details: dog; concentration needed to inhibit 50% growth of MDCK cells in 48 h
Procedure: In a 96-well plate, 1×10^4 MDCK cells were seeded per well and incubated for 24 h at 37° C. The MDCK cells were then incubated with compounds for 48 h at 35° C. The number of metabolically viable cells was determined by the MTS assay (Promega).

[2] = test system: RDRP activity of WSN virus; format: biochemical, Influenza virus A/WSN/33 (H1N1)
rWSN virus (parental) = experiment: microbe, parasite or virus in culture; format: cell-based; details: unidentified influenza virus, MDCK, 48 h, read-out: Anti-rWSN IC50 (μM), parental

NP WT trimer, sequence (P15682 whole entry, looked up): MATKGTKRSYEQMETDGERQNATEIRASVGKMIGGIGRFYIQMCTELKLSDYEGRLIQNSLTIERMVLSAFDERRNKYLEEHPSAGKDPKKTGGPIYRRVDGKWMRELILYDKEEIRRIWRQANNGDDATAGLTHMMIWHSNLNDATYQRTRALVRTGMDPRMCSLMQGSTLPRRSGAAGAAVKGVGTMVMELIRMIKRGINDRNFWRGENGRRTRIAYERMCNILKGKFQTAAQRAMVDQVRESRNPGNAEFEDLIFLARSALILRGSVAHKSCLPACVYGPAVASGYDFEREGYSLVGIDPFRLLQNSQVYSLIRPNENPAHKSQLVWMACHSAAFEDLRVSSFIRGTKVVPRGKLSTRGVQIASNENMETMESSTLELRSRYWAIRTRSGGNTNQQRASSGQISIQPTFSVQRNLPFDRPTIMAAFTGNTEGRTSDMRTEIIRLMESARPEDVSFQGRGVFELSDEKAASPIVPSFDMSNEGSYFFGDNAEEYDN

Compound | IC50 (WSN virus) | effect of compounds on NP WT trimer (AUC) (NP WT trimer) | CC50 at 48 h [1] | inhibition of viral transcription activity [2] | effect of peptides on WT NP trimerization (AUC) (NP WT trimer) | IC50 (rWSN virus (parental))
CCCCCCCCC(=O)NCC(=O)Nc1cccc(F)c1 [compound 2] | 37.5 µM | able to disrupt NP trimerization and induce formation of NP monomers | > 100 µM |  |  | 
Cc1cccc(CSc2nc(=O)n(CCCO)c3c2CCC3)c1 [compound 4] | 39.7 µM | able to disrupt NP trimerization and induce formation of NP monomers | > 100 µM |  |  | 
CC(C)[C@@H]1NC(=O)[C@H](CO)NC(=O)[C@H](Cc2ccccc2)NC(=O)[C@H]([C@@H](C)O)NC(=O)[C@@H](N)CSSC[C@@H](C(=O)O)NC(=O)[C@H](CC(N)=O)NC(=O)[C@H](CCCNC(=N)N)NC(=O)[C@H](CCC(N)=O)NC1=O [peptide 2] |  |  | > 2000 µM | reduce the viral transcription activity | the effect was substantially enhanced | 
CCCCCC(=O)NCC(=O)Nc1cc(Cl)ccc1Cl [compound 3] | 118 µM | able to disrupt NP trimerization and induce formation of NP monomers | > 100 µM |  |  | 
TFDSVQRN [peptide 1] |  |  |  |  | disrupted WT NP trimerization only slightly | 
CC(C)C[C@@H]1NC(=O)[C@H](CC(N)=O)NC(=O)[C@H](CCCNC(=N)N)NC(=O)[C@H](CCC(N)=O)NC(=O)[C@H](C(C)C)NC(=O)[C@H](CO)NC(=O)[C@H](Cc2ccccc2)NC(=O)[C@H]([C@@H](C)O)NC(=O)[C@@H]2CCCN2C(=O)[C@H](CCC(N)=O)NC(=O)[C@@H](N)CSSC[C@@H](C(=O)O)NC1=O [peptide 3] (H-CQPTFSVQRNLC-OH; disulfide 1-12) |  |  | > 2000 µM | reduce the viral transcription activity | showed a slightly greater effect | 
Cc1onc(-c2ccccc2)c1C(=O)N1CCN(c2ccc([N+](=O)[O-])cc2Cl)CC1 [nucleozin, reference compound] |  | caused aggregation of the NP trimer |  |  |  | 
O=C(NCCCN1CCOCC1)c1csc(Nc2ccc(Cl)c(Cl)c2)n1 [compound 1] | 2.7 µM | able to disrupt NP trimerization and induce formation of NP monomers | 35.6 µM |  |  | 1.7 µM
